The subject of the data set is rodent carcinogenicity bioassays, tumor incidence. Description: CCRIS carcinogenicity studies. An outline of the steps: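 Archive of carcinogenicity, mutagenicity, tumor promotion and tumor inhibition results drawn from journals, NCI reports and other sources, expert-reviewed; covers 1985-2011 and is no longer updated.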

The structures appear in SMILES notation. Calls of active or inactive are those of the source. How the calls were made is not given here.

Regarding `CO[C@@H](Cc1ccc(OCCCOc2ccc(Oc3ccccc3)cc2)cc1)C(=O)O`, the carcinogen call (Species: Rat, Strain/Sex: F344/N / Female (60/Group), Route: Oral (gavage), Dose: 0, 0.1, 0.3, 1.0 mg/kg bw daily for 104 wk, study duration 104 wk, Dose: 0, 0.1, 0.3, 1.0 mg/kg bw daily for 104 wk, study duration 104 wk, Tumor Site: Type of Lesion: Bladder: carcinoma (0, 0, 2, 8), papilloma (0, 0, 0, 6)) is “active; positive. study primarily directed to urine characteristics” and the carcinogen call (Species: Rat, Strain/Sex: F344/N / Male (60/Group), Route: Oral (gavage), Dose: 0, 0.3, 1.0, 3.0 mg/kg bw daily for 104 wk, study duration 104 wk, Dose: 0, 0.3, 1.0, 3.0 mg/kg bw daily for 104 wk, study duration 104 wk) is “inactive; negative”.

On to `N[C@@H](Cc1c[nH]c2ccccc12)C(=O)O`, for which the carcinogen call reads like this: (Species: MOUSE, Strain/Sex: B6C3F1/FEMALE, Route: ORAL, Dose: 0, 25000, 50000 PPM IN DIET, Dose: 0, 25000, 50000 PPM IN DIET) “inactive; negative”; (Species: MOUSE, Strain/Sex: B6C3F1/MALE, Route: ORAL, Dose: 0, 25000, 50000 PPM IN DIET, Dose: 0, 25000, 50000 PPM IN DIET) “inactive; negative”; (Species: RAT, Strain/Sex: F344/FEMALE, Route: ORAL, Dose: 0, 25000, 50000 PPM IN DIET, Dose: 0, 25000, 50000 PPM IN DIET) “inactive; negative”; (Species: RAT, Strain/Sex: F344/MALE, Route: ORAL, Dose: 0, 25000, 50000 PPM IN DIET, Dose: 0, 25000, 50000 PPM IN DIET) “inactive; negative”.

On to `CC1CN(N=O)CC(C)N1C` (centres undefined), for which the carcinogen call (Species: RAT, Strain/Sex: F344/FEMALE, Route: ORAL, Dose: 0, 110 MG/L IN DRINKING WATER 5 D/WK FOR 26 WK, STUDY DURATION: 40-50 WK, Dose: 0, 110 MG/L IN DRINKING WATER 5 D/WK FOR 26 WK, STUDY DURATION: 40-50 WK, Tumor Site: Type of Lesion: THYMUS GLAND: LYMPHOMA OR LEUKEMIA, MULTIPLE SITES: LYMPHOMA OR LEUKEMIA, NASAL CAVITY: CARCINOMA, Tumor Site: Type of Lesion: THYMUS GLAND: LYMPHOMA OR LEUKEMIA, MULTIPLE SITES: LYMPHOMA OR LEUKEMIA, NASAL CAVITY: CARCINOMA) was “active; positive”.

For the molecule `CCC(Br)(CC)C(=O)NC(N)=O`, the carcinogen call is “inactive; negative” (Species: MOUSE, Strain/Sex: B6C3F1/FEMALE, Route: ORAL, Dose: 0, 1250, 2500 PPM IN DIET, Dose: 0, 1250, 2500 PPM IN DIET); “inactive; negative” (Species: MOUSE, Strain/Sex: B6C3F1/MALE, Route: ORAL, Dose: 0, 1250, 2500 PPM IN DIET, Dose: 0, 1250, 2500 PPM IN DIET); “inactive; negative” (Species: RAT, Strain/Sex: F344/FEMALE, Route: ORAL, Dose: 0, 1250, 2500 PPM IN DIET, Dose: 0, 1250, 2500 PPM IN DIET); “inactive; negative” (Species: RAT, Strain/Sex: F344/MALE, Route: ORAL, Dose: 0, 1250, 2500 PPM IN DIET, Dose: 0, 1250, 2500 PPM IN DIET).

For the molecule `CCNNCC`, the carcinogen call (Species: RAT, Route: PRE-NATAL EXP, Tumor Site: Type of Lesion: BRAIN, NERVOUS SYSTEM) was “active; positive”.

As to `O=[N+]([O-])c1ccc2c(c1)-c1ccc([N+](=O)[O-])c3cccc-2c13`, the carcinogen call is “active; positive” (Species: RAT, Strain/Sex: F344/DUCRJ/MALE, Route: PULMONARY IMPLANT, Dose: 0, 0.05, 0.1, 0.2 MG AS A SUSPENSION IN EQUAL VOL OF BEESWAX AND TRICAPRYLIN IMPLANTED IN LEFT LUNG (STUDY DURATION: 70, Dose: 0, 0.05, 0.1, 0.2 MG AS A SUSPENSION IN EQUAL VOL OF BEESWAX AND TRICAPRYLIN IMPLANTED IN LEFT LUNG (STUDY DURATION: 70, Tumor Site: Type of Lesion: LUNG: TUMOR); “active; positive” (Species: RAT, Strain/Sex: F344/MALE, Route: LUNG IMPLANT, Dose: 0, 50, 100, 200 UG IN BEESWAX/TRICAPRYLIN INTO LOWER LEFT LUNG ONCE (STUDY DURATION: 100 WK), Dose: 0, 50, 100, 200 UG IN BEESWAX/TRICAPRYLIN INTO LOWER LEFT LUNG ONCE (STUDY DURATION: 100 WK), Tumor Site: Type of Lesion: LUNG: SQUAMOUS CELL CARCINOMA, ADENOSQUAMOUS CARCINOMA, TUMOR); “active; positive” (Species: RAT, Strain/Sex: F344/MALE, Route: PULMONARY IMPLANT, Dose: 0, 50, 100, 200 UG IN 50 µL BEESWAX/TRICAPRYLIN IMPLANTED FOR UP TO 100 WK (STUDY DURATION: 100 WK), Dose: 0, 50, 100, 200 UG IN 50 µL BEESWAX/TRICAPRYLIN IMPLANTED FOR UP TO 100 WK (STUDY DURATION: 100 WK), Tumor Site: Type of Lesion: LUNG: TUMOR).

Turning to `CC(=O)CN(C)N=O`, the carcinogen call is, setting by setting: (Species: HAMSTER, Strain/Sex: SYRIAN/FEMALE, Route: GAVAGE, Dose: 0, 0.5 MG IN 0.1 ML WATER 2/WK FOR 22 WK FOR A TOTAL DOSE OF 22 MG (STUDY DURATION: 45 WK), Tumor Site: Type of Lesion: LIVER: HEMANGIOSARCOMA, CHOLANGIOCELLULAR CARCINOMA, CHOLANGIOCELLULAR ADENOMA, NASAL MUCOSA: CARCINOMA) “active; positive”; (Species: HAMSTER, Strain/Sex: SYRIAN/FEMALE, Route: GAVAGE, Dose: 0, 1 MG IN 0.1 ML WATER 2/WK FOR 11 WK FOR A TOTAL DOSE OF 22 MG (STUDY DURATION: 45 WK), Tumor Site: Type of Lesion: LIVER: TUMOR, NASAL MUCOSA: CARCINOMA) “active; positive”; (Species: HAMSTER, Strain/Sex: SYRIAN/FEMALE, Route: GAVAGE, Dose: 0, 2 MG IN 0.2 ML WATER 1/WK FOR 14 WK FOR A TOTAL DOSE OF 28 MG (STUDY DURATION: 17 WK), Tumor Site: Type of Lesion: LIVER: HEPATOCELLULAR ADENOMA, CHOLANGIOCELLULAR CARCINOMA OR ADENOMA, NASAL MUCOSA: CARCINOMA OR ADENOMA) “active; positive”; (Species: RAT, Strain/Sex: F344/FEMALE, Route: GAVAGE, Dose: 0, 4 MG/WK FOR A TOTAL DOSE OF 0.5 MMOL (STUDY DURATION: 40 WK), Tumor Site: Type of Lesion: ESOPHAGUS: TUMOR) “active; positive”; (Species: RAT, Strain/Sex: F344/MALE, Route: GAVAGE, Dose: 0, 2, 4, 10 MG/WK FOR A TOTAL DOSE OF 0.5, 0.5, 0.9 MMOL (STUDY DURATION: 70 WK), Dose: 0, 2, 4, 10 MG/WK FOR A TOTAL DOSE OF 0.5, 0.5, 0.9 MMOL (STUDY DURATION: 70 WK), Tumor Site: Type of Lesion: ESOPHAGUS: TUMOR) “active; positive”.

For the molecule `OCCNCCO`, the carcinogen call by setting is: (Species: MOUSE, Strain/Sex: B6C3F1/FEMALE, Route: DERMAL, Dose: 0, 40, 80, 160 MG/KG BW IN ETHANOL 5 D/WK FOR 103 WK (STUDY DURATION: 103 WK), Dose: 0, 40, 80, 160 MG/KG BW IN ETHANOL 5 D/WK FOR 103 WK (STUDY DURATION: 103 WK), Tumor Site: Type of Lesion: LIVER: HEPATOCELLULAR ADENOMA, HEPATOCELLULAR CARCINOMA, OR HEPATOBLASTOMA) “active; positive”; (Species: MOUSE, Strain/Sex: B6C3F1/MALE, Route: DERMAL, Dose: 0, 40, 80, 160 MG/KG BW IN ETHANOL 5 D/WK FOR 103 WK (STUDY DURATION: 103 WK), Dose: 0, 40, 80, 160 MG/KG BW IN ETHANOL 5 D/WK FOR 103 WK (STUDY DURATION: 103 WK), Tumor Site: Type of Lesion: LIVER: HEPATOCELLULAR ADENOMA, HEPATOCELLULAR CARCINOMA, OR HEPATOBLASTOMA) “active; positive”; (Species: RAT, Strain/Sex: F344/N/FEMALE, Route: DERMAL, Dose: 0, 8, 16, 32 MG/KG BW IN ETHANOL 5 D/WK FOR 103 WK (STUDY DURATION: 103 WK), Dose: 0, 8, 16, 32 MG/KG BW IN ETHANOL 5 D/WK FOR 103 WK (STUDY DURATION: 103 WK)) “inactive; negative”; (Species: RAT, Strain/Sex: F344/N/MALE, Route: DERMAL, Dose: 0, 16, 32, 64 MG/KG BW IN ETHANOL 5 D/WK FOR 103 WK (STUDY DURATION: 103 WK), Dose: 0, 16, 32, 64 MG/KG BW IN ETHANOL 5 D/WK FOR 103 WK (STUDY DURATION: 103 WK)) “inactive; negative”.

These data come from PubChem BioAssay AID1259411 (Chemical Carcinogenesis Research Information System (CCRIS), 2018).
